Data from patent publication US11696937B2, “Glycopeptide compounds having activity of resisting drug-resistant bacteria, and preparation method and application thereof” (priority 2018, dated 2023).
Values after ≈ are worked out from the molar mass of the structure shown.

What was measured:
ATCC43300 (MRSA) = experiment: In vitro antibacterial activity (MIC) against MRSA; assay type: cell-based, Methicillin-resistant Staphylococcus aureus; conditions: MRSA strain ATCC43300; method of Pharmacopoeia of the People's Republic of China (2015 edition)
Method: (§1) An antibacterial activity of the compounds in Table 1 is determined in vitro, and a minimum inhibitory concentration (MIC) is read. The determination method refers to the method of the Pharmacopoeia of the People's Republic of China (2015 edition). The MRSA detection strain is purchased from ATCC, and the VRE detection strain is from the clinically isolated drug-resistant strain 07-W3-45 from Shanghai Huashan Hospital. Known antibiotic oritavancin (phosphate) is used for a reference drug.

[1] = system: Clinical isolates 07-W3-45 (VRE); experiment: In vitro antibacterial activity (MIC) against VRE; assay type: cell-based, Vancomycin-resistant Enterococcus; conditions: clinically isolated drug-resistant strain 07-W3-45 from Shanghai Huashan Hospital
Method: as §1

wild AB zebrafish = experiment: Zebrafish toxicity test; assay type: in vivo; conditions: intravenous injection, 72 hours of treatment, samples in phosphate form
Method: A zebrafish toxicity test of the compounds in Table 1 is also tested. Randomly select wild AB zebrafish in a six-well plate, and inject each test sample at a dose of 50, 100, 150, 200, and 250 ng/tail intravenously. At the same time, a normal control group and a solvent control group (aqueous phosphoric acid) are set; During this experiment, the death of zebrafish is observed and recorded every day and the dead fish are removed. After 72 hours of treatment, the death of zebrafish is counted. Calculate the LD50 of each test product to zebrafish.
All samples are tested for zebrafish toxicity in phosphate form.

| Structure (SMILES) | MIC ATCC43300 (MRSA) (ATCC43300 (MRSA)) [µg/mL] | MIC Clinical isolates 07-W3-45 (VRE) [1] [µg/mL] | Zebrafish LD50 (wild AB zebrafish) [ng/tail] |
| --- | --- | --- | --- |
| CNC(CC(C)C)C(=O)NC1C(=O)NC(CC(N)=O)C(=O)NC2C(=O)NC3C(=O)NC(C(=O)NC(C(=O)O)c4cc(O)cc(O)c4-c4cc3ccc4O)C(OC3CC(C)(N)C(O)C(C)O3)c3ccc(c(Cl)c3)Oc3cc2cc(c3OC2OC(CO)C(O)C(O)C2OC2CC(C)(NCc3ccc(OCc4ccccc4)cc3)C(O)C(C)O2)Oc2ccc(cc2Cl)C1O (stereo not drawn) [Compound 1] | 0.5 (≈ 0.28 µM) | 2 (≈ 1.12 µM) | 139 |
| CNC(CC(C)C)C(=O)NC1C(=O)NC(CC(N)=O)C(=O)NC2C(=O)NC3C(=O)NC(C(=O)NC(C(=O)O)c4cc(O)cc(O)c4-c4cc3ccc4O)C(OC3CC(C)(N)C(O)C(C)O3)c3ccc(c(Cl)c3)Oc3cc2cc(c3OC2OC(CO)C(O)C(O)C2OC2CC(C)(NCc3ccc(OCCc4ccccc4)cc3)C(O)C(C)O2)Oc2ccc(cc2Cl)C1O (stereo not drawn) [Compound 2] | 0.5 (≈ 0.277 µM) | 2 (≈ 1.11 µM) | 163 |
| CNC(CC(C)C)C(=O)NC1C(=O)NC(CC(N)=O)C(=O)NC2C(=O)NC3C(=O)NC(C(=O)NC(C(=O)O)c4cc(O)cc(O)c4-c4cc3ccc4O)C(OC3CC(C)(N)C(O)C(C)O3)c3ccc(c(Cl)c3)Oc3cc2cc(c3OC2OC(CO)C(O)C(O)C2OC2CC(C)(NCc3ccc(OCCCc4ccccc4)cc3)C(O)C(C)O2)Oc2ccc(cc2Cl)C1O (stereo not drawn) [Compound 3] | 0.25 (≈ 0.138 µM) | 1 (≈ 0.55 µM) | 123 |
| CNC(CC(C)C)C(=O)NC1C(=O)NC(CC(N)=O)C(=O)NC2C(=O)NC3C(=O)NC(C(=O)NC(C(=O)O)c4cc(O)cc(O)c4-c4cc3ccc4O)C(OC3CC(C)(N)C(O)C(C)O3)c3ccc(c(Cl)c3)Oc3cc2cc(c3OC2OC(CO)C(O)C(O)C2OC2CC(C)(NCc3ccc(OCc4ccc(C)cc4)cc3)C(O)C(C)O2)Oc2ccc(cc2Cl)C1O (stereo not drawn) [Compound 4] | 0.5 (≈ 0.277 µM) | 2 (≈ 1.11 µM) | 101 |
| CNC(CC(C)C)C(=O)NC1C(=O)NC(CC(N)=O)C(=O)NC2C(=O)NC3C(=O)NC(C(=O)NC(C(=O)O)c4cc(O)cc(O)c4-c4cc3ccc4O)C(OC3CC(C)(N)C(O)C(C)O3)c3ccc(c(Cl)c3)Oc3cc2cc(c3OC2OC(CO)C(O)C(O)C2OC2CC(C)(NCc3ccc(OCc4ccc(Cl)cc4)cc3)C(O)C(C)O2)Oc2ccc(cc2Cl)C1O (stereo not drawn) [Compound 5] | 0.5 (≈ 0.274 µM) | 2 (≈ 1.1 µM) | 180 |
| CNC(CC(C)C)C(=O)NC1C(=O)NC(CC(N)=O)C(=O)NC2C(=O)NC3C(=O)NC(C(=O)NC(C(=O)O)c4cc(O)cc(O)c4-c4cc3ccc4O)C(OC3CC(C)(N)C(O)C(C)O3)c3ccc(c(Cl)c3)Oc3cc2cc(c3OC2OC(CO)C(O)C(O)C2OC2CC(C)(NCc3ccc(OCCc4ccc(C)cc4)cc3)C(O)C(C)O2)Oc2ccc(cc2Cl)C1O (stereo not drawn) [Compound 6] | 0.25 (≈ 0.138 µM) | 8 (≈ 4.4 µM) | 121 |
| CNC(CC(C)C)C(=O)NC1C(=O)NC(CC(N)=O)C(=O)NC2C(=O)NC3C(=O)NC(C(=O)NC(C(=O)O)c4cc(O)cc(O)c4-c4cc3ccc4O)C(OC3CC(C)(N)C(O)C(C)O3)c3ccc(c(Cl)c3)Oc3cc2cc(c3OC2OC(CO)C(O)C(O)C2OC2CC(C)(NCc3ccc(OCCc4ccc(F)cc4)cc3)C(O)C(C)O2)Oc2ccc(cc2Cl)C1O (stereo not drawn) [Compound 7] | 0.5 (≈ 0.275 µM) | 1 (≈ 0.549 µM) | 97 |
| CNC(CC(C)C)C(=O)NC1C(=O)NC(CC(N)=O)C(=O)NC2C(=O)NC3C(=O)NC(C(=O)NC(C(=O)O)c4cc(O)cc(O)c4-c4cc3ccc4O)C(OC3CC(C)(N)C(O)C(C)O3)c3ccc(c(Cl)c3)Oc3cc2cc(c3OC2OC(CO)C(O)C(O)C2OC2CC(C)(NCc3ccc(OCCc4ccc(Cl)cc4)cc3)C(O)C(C)O2)Oc2ccc(cc2Cl)C1O (stereo not drawn) [Compound 8] | 0.5 (≈ 0.272 µM) | 1 (≈ 0.544 µM) | 150 |
| CNC(CC(C)C)C(=O)NC1C(=O)NC(CC(N)=O)C(=O)NC2C(=O)NC3C(=O)NC(C(=O)NC(C(=O)O)c4cc(O)cc(O)c4-c4cc3ccc4O)C(OC3CC(C)(N)C(O)C(C)O3)c3ccc(c(Cl)c3)Oc3cc2cc(c3OC2OC(CO)C(O)C(O)C2OC2CC(C)(NCc3ccc(OCCc4ccc(Br)cc4)cc3)C(O)C(C)O2)Oc2ccc(cc2Cl)C1O (stereo not drawn) [Compound 9] | 0.25 (≈ 0.133 µM) | 1 (≈ 0.531 µM) | 129 |
| CNC(CC(C)C)C(=O)NC1C(=O)NC(CC(N)=O)C(=O)NC2C(=O)NC3C(=O)NC(C(=O)NC(C(=O)O)c4cc(O)cc(O)c4-c4cc3ccc4O)C(OC3CC(C)(N)C(O)C(C)O3)c3ccc(c(Cl)c3)Oc3cc2cc(c3OC2OC(CO)C(O)C(O)C2OC2CC(C)(NCc3ccc(OCCc4cccc(Br)c4)cc3)C(O)C(C)O2)Oc2ccc(cc2Cl)C1O (stereo not drawn) [Compound 10] | 0.125 (≈ 0.0664 µM) | 1 (≈ 0.531 µM) | 113 |
| CNC(CC(C)C)C(=O)NC1C(=O)NC(CC(N)=O)C(=O)NC2C(=O)NC3C(=O)NC(C(=O)NC(C(=O)O)c4cc(O)cc(O)c4-c4cc3ccc4O)C(OC3CC(C)(N)C(O)C(C)O3)c3ccc(c(Cl)c3)Oc3cc2cc(c3OC2OC(CO)C(O)C(O)C2OC2CC(C)(NCc3ccc(OCCc4ccc(C(F)(F)F)cc4)cc3)C(O)C(C)O2)Oc2ccc(cc2Cl)C1O (stereo not drawn) [Compound 11] | 0.064 (≈ 0.0342 µM) | 0.5 (≈ 0.267 µM) | 99 |
| CNC(CC(C)C)C(=O)NC1C(=O)NC(CC(N)=O)C(=O)NC2C(=O)NC3C(=O)NC(C(=O)NC(C(=O)O)c4cc(O)cc(O)c4-c4cc3ccc4O)C(OC3CC(C)(N)C(O)C(C)O3)c3ccc(c(Cl)c3)Oc3cc2cc(c3OC2OC(CO)C(O)C(O)C2OC2CC(C)(NCc3ccc(OCCc4ccc(OC)cc4)cc3)C(O)C(C)O2)Oc2ccc(cc2Cl)C1O (stereo not drawn) [Compound 12] | 0.5 (≈ 0.273 µM) | 16 (≈ 8.73 µM) | 188 |
| CNC(CC(C)C)C(=O)NC1C(=O)NC(CC(N)=O)C(=O)NC2C(=O)NC3C(=O)NC(C(=O)NC(C(=O)O)c4cc(O)cc(O)c4-c4cc3ccc4O)C(OC3CC(C)(N)C(O)C(C)O3)c3ccc(c(Cl)c3)Oc3cc2cc(c3OC2OC(CO)C(O)C(O)C2OC2CC(C)(NCc3ccc(OCCCc4ccc(Cl)cc4)cc3)C(O)C(C)O2)Oc2ccc(cc2Cl)C1O (stereo not drawn) [Compound 13] | 0.5 (≈ 0.27 µM) | 2 (≈ 1.08 µM) | 164 |
| CNC(CC(C)C)C(=O)NC1C(=O)NC(CC(N)=O)C(=O)NC2C(=O)NC3C(=O)NC(C(=O)NC(C(=O)O)c4cc(O)cc(O)c4-c4cc3ccc4O)C(OC3CC(C)(N)C(O)C(C)O3)c3ccc(c(Cl)c3)Oc3cc2cc(c3OC2OC(CO)C(O)C(O)C2OC2CC(C)(NCc3ccc(SCc4ccccc4)cc3)C(O)C(C)O2)Oc2ccc(cc2Cl)C1O (stereo not drawn) [Compound 14] | 0.032 (≈ 0.0177 µM) | 8 (≈ 4.43 µM) | 82 |
| CNC(CC(C)C)C(=O)NC1C(=O)NC(CC(N)=O)C(=O)NC2C(=O)NC3C(=O)NC(C(=O)NC(C(=O)O)c4cc(O)cc(O)c4-c4cc3ccc4O)C(OC3CC(C)(N)C(O)C(C)O3)c3ccc(c(Cl)c3)Oc3cc2cc(c3OC2OC(CO)C(O)C(O)C2OC2CC(C)(NCc3ccc(SCc4ccc(Cl)cc4)cc3)C(O)C(C)O2)Oc2ccc(cc2Cl)C1O (stereo not drawn) [Compound 15] | 0.032 (≈ 0.0174 µM) | 1 (≈ 0.544 µM) | 76 |
| CNC(CC(C)C)C(=O)NC1C(=O)NC(CC(N)=O)C(=O)NC2C(=O)NC3C(=O)NC(C(=O)NC(C(=O)O)c4cc(O)cc(O)c4-c4cc3ccc4O)C(OC3CC(C)(N)C(O)C(C)O3)c3ccc(c(Cl)c3)Oc3cc2cc(c3OC2OC(CO)C(O)C(O)C2OC2CC(C)(NCc3ccc(SCCc4ccc(Cl)cc4)cc3)C(O)C(C)O2)Oc2ccc(cc2Cl)C1O (stereo not drawn) [Compound 16] | 0.032 (≈ 0.0173 µM) | 0.5 (≈ 0.27 µM) | 72 |
| CNC(CC(C)C)C(=O)NC1C(=O)NC(CC(N)=O)C(=O)NC2C(=O)NC3C(=O)NC(C(=O)NC(C(=O)O)c4cc(O)cc(O)c4-c4cc3ccc4O)C(OC3CC(C)(N)C(O)C(C)O3)c3ccc(c(Cl)c3)Oc3cc2cc(c3OC2OC(CO)C(O)C(O)C2OC2CC(C)(NCc3ccc(NCc4ccccc4)cc3)C(O)C(C)O2)Oc2ccc(cc2Cl)C1O (stereo not drawn) [Compound 17] | 0.5 (≈ 0.28 µM) | 1 (≈ 0.559 µM) | 139 |
| CNC(CC(C)C)C(=O)NC1C(=O)NC(CC(N)=O)C(=O)NC2C(=O)NC3C(=O)NC(C(=O)NC(C(=O)O)c4cc(O)cc(O)c4-c4cc3ccc4O)C(OC3CC(C)(N)C(O)C(C)O3)c3ccc(c(Cl)c3)Oc3cc2cc(c3OC2OC(CO)C(O)C(O)C2OC2CC(C)(NCc3ccc(NCc4ccc(C)cc4)cc3)C(O)C(C)O2)Oc2ccc(cc2Cl)C1O (stereo not drawn) [Compound 18] | 0.5 (≈ 0.278 µM) | 1 (≈ 0.555 µM) | 128 |
| CNC(CC(C)C)C(=O)NC1C(=O)NC(CC(N)=O)C(=O)NC2C(=O)NC3C(=O)NC(C(=O)NC(C(=O)O)c4cc(O)cc(O)c4-c4cc3ccc4O)C(OC3CC(C)(N)C(O)C(C)O3)c3ccc(c(Cl)c3)Oc3cc2cc(c3OC2OC(CO)C(O)C(O)C2OC2CC(C)(NCc3ccc(NCc4ccc(Cl)cc4)cc3)C(O)C(C)O2)Oc2ccc(cc2Cl)C1O (stereo not drawn) [Compound 19] | 0.25 (≈ 0.137 µM) | 0.2 (≈ 0.11 µM) | 117 |
